# Source: patent US20250171450A1, “NOVEL COELENTERAZINE DERIVATIVES” (National Institute of Advanced Industrial Science and …, priority 2022, published 2025)
# Columns and labels:
# [1] = system: ALuc16; assay: Evaluation of luminescence brightness, ALuc16 expressed in COS-7 cells (live cells and lysates); assay type: cell-based, luminescent plankton; details: COS-7 live cells and lysates (FIGS. 1, 2); 100 μM diluted luminescent substrate solution
# Description: (§1) For luminescence measurements, the IVIS Imaging System purchased from PerkinElmer (old name: Caliper Life Sciences) was used.
# (§2) As live cells expressing luminescent enzymes, COS-7 cells derived from the kidney of an African green monkey were used, and the evaluations were also conducted with the lysates produced by the lysis of these live cells.
# (§3) The COS-7 cells derived from the kidney of the African green monkey were seeded in a 6-well microplate and were cultured in a CO2 incubator until 70% of the bottom area was covered by the cells. Using TransIT-LT1 reagent (Mirus), the plasmid encoding each of the following marine bioluminescent enzymes was transiently expressed in cells in each well.
# (§4) After this lipofection, the cells were cultured in a CO2 incubator for one day. The cells were then subcultured into a 96-well microplate and further incubated for one day.
# (§5) The wells with cells transfected with the same plasmid were conceptually divided into two, where one was used for lysate experiments and the other for live cell experiments. For the lysate, first, the cell medium was removed from the 96-well microplate, and then 40 μL of cell lysis reagent (lysate) available from Promega K. K. was injected into each well and the plate was incubated for 15 minutes. For the live cell experiments, after the cell medium was completely removed, the microplate was immediately sealed to prevent the sample evaporation until the luminescence measurements.
# (§6) Each luminescent substrate was first dissolved in methanol (PEG400, 25%) to 5 mM (stock solution), which was further diluted with phosphate-buffered saline (PBS) to 100 μM (this solution is hereinafter referred to as diluted luminescent substrate solution). This “diluted luminescent substrate solution” was dispensed in advance into each empty well of a 96-well microplate. […] The bioluminescence brightness from the 96-well black frame microplate was measured, and analyzed using the dedicated software Living Image ver. […]
# [2] = system: ALuc47; assay: Evaluation of luminescence brightness, ALuc47 expressed in COS-7 cells (live cells and lysates); assay type: cell-based, luminescent plankton; details: 100 μM diluted luminescent substrate solution
# Description: as §1, §2, §3, §4, §5, §6
# [3] = system: Renilla luciferase 8.6-535SG (RLuc8.6SG); assay: Evaluation of luminescence brightness, RLuc8.6SG expressed in COS-7 cells (live cells and lysates); assay type: cell-based, Renilla reniformis; details: COS-7 live cells and lysates (FIGS. 7, 8); 100 μM diluted luminescent substrate solution
# Description: as §1, §2, §3, §4, §5, §6
# [4] = molecular target: T1, NanoLuc (Oplophorus gracilirostris, UniProt Q9GV45, A31E/A60N/A81I/F95D/I117V/K70R/L54V/L99Q/M102K/N193R/P142E/Q151K/Q38R/Q45L/V71I/Y165I); assay: Evaluation of luminescence brightness, NanoLuc expressed in COS-7 cells (live cells and lysates); assay type: cell-based; details: COS-7 live cells and lysates (FIGS. 10, 11); 100 μM diluted luminescent substrate solution
# T1 construct: host or cells: COS-7
# Description: as §1, §2, §3, §4, §5, §6
# [5] = system: ALuc16, ALuc47, RLuc8.6SG, NanoLuc; assay: Enzyme specificity from luminescence brightness across the luminescent enzymes; assay type: cell-based; details: comparison of luminescence among ALuc16, ALuc47, RLuc8.6SG
# Description: as §1, §2, §3, §4
# The wells with cells transfected with the same plasmid were conceptually divided into two, where one was used for lysate experiments and the other for live cell experiments. […] For the live cell experiments, after the cell medium was completely removed, the microplate was immediately sealed to prevent the sample evaporation until the luminescence measurements. […]
# [6] = molecular target: T1, NanoLuc; assay: Evaluation of bioluminescence spectrum, NanoLuc lysate; assay type: biochemical; details: COS-7 lysate (FIG. 12)
# Description: Measurements were conducted using the luminescence spectrum device AB-1850 available from ATTO Corporation.
# The measured spectra were obtained with a measurement parameter-tuned detector.
# The COS-7 cells were seeded in a 6-well microplate and were cultured in a CO2 incubator until 70% of the bottom area was covered by the cells. Using TransIT-LT1 reagent (Mirus), the plasmid encoding each of the following marine bioluminescent enzymes was transiently expressed in cells in each well.
# After this lipofection, the cells were cultured in a CO2 incubator for one day. After the cell medium was completely removed from the 6-well microplate, 200 μL of cell lysis reagent (lysate) available from Promega K. K. was added to each well and the microplate was incubated at room temperature for 15 minutes.
# Twenty microliters of this lysate were dispensed into each PCR tube, and 20 μL of the 100 μM diluted luminescent substrate solution was added at the time of luminescence brightness evaluation. The PCR tubes were immediately placed in a spectrophotometer (AB-1850, ATTO Corporation), and the bioluminescence spectrum was measured in the high-sensitivity mode with integration modes of 0.5 seconds, 5 seconds, 10 seconds, and 30 seconds. […]
# [7] = COS-7 live cells and lysates (FIGS. 4, 5)
# T1 sequence (Q9GV45 28-196 with tags or gaps with the stated changes limits assumed): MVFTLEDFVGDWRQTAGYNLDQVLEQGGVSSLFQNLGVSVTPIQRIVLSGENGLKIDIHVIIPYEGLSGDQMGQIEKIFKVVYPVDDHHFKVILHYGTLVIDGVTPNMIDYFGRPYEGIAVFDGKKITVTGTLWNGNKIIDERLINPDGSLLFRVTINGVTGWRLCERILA
Structure (SMILES),luminescence for ALuc16 [1],"luminescence for ALuc47 [2, 7]",luminescence for RLuc8.6SG [3],luminescence for NanoLuc [4],enzyme specificity [5],luminescence spectral peak for NanoLuc [6],luminescence for ALuc47 ([2]; COS-7 live cells (FIG. 4 only cited))
O=c1c(Cc2ccc(O)cc2)nc2c(Cc3ccccc3)[nH]c(-c3ccc4c(c3)OCCO4)cn1-2 [structural formula (1-1)],high luminescence at high brightness,slight luminescence,slight luminescence,no luminescence activity,enzyme specificity for ALuc16,–,–
O=c1c(Cc2ccc(O)cc2)nc2c(Sc3ccccc3)[nH]c(-c3ccc(O)cc3)cn1-2 [structural formula (2-1)],luminescence activity,also showed luminescence,luminescence activity,luminescence activity,–,507 nm,–
O=c1c(Cc2ccc(O)cc2)nc2c(Sc3ccc(F)cc3)[nH]c(-c3ccc(O)cc3)cn1-2 [structural formula (2-2)],luminescence activity,–,luminescence activity,slight luminescence,–,–,slight luminescence
